The results in this text go back to patent publication US20240294478A1, “ANTI-CANCER COMPOUNDS AND METHODS OF USE” (YALE UNIVERSITY, priority 2021, published 2024).

SMILES strings stand for the structures.

Experiment [1] concerns FANCD2 ubiquitination in LN229 MGMT+/−, MMR+/− cells. The experiment is described as follows: Western blot analysis of FANCD2 ubiquitination. In kind it is cell-based, human. The text has this:
FIGS. 8A-8K. (FIG. 8A) Change in percent cells with 1 micronuclei from baseline (DMSO control) after treatment as in FIGS. 5A and 5C. Columns, mean; error bars, SD; n>15 technical replicates; **** p<0.0001; ns, not significant. (FIG. 8B) Short-term viability assay curves for KL-50 in PD20 cells, deficient in FANCD2 (FANCD2−/−) or complemented with FANCD2 (+FANCD2). (FIG. 8C) Short-term viability assay curves for KL-50 in PEO4 (BRCA2+) and PEO1 (BRCA2−/−) cells pre-treated with 0.01% DMSO control or 10 μM O^6BG (+O^6BG) for 1 h prior to KL-50 addition. (FIG. 8D) Short-term viability assay curves for KL-50 in DLD1 BRCA2+/− and BRCA2−/−cells pre-treated with 0.01% DMSO control or 10 μM O^6BG (+O^6BG) for 1 h prior to KL-50 addition. For FIGS. 8B-8D, points, mean; error bars, SD; n=3 technical replicates. […] (FIG. 8E) Validation of micronuclei identification using olaparib as positive control. Change in percent cells with 1 micronuclei from baseline (DMSO control) after treatment with olaparib (10 μM) for 48 h in LN229 MGMT+/−, MMR+/−cells. Columns, mean; error bars, SD; n>15 technical replicates; **** p<0.0001. […] The % FANCD2 ubiquitination (% FANCD2 Ub) is quantified as the background-corrected integrated band intensity of the upper band divided by the sum of the background-corrected integrated band intensities of the upper and lower bands. […]
Background: A western blot detects proteins with antibodies after separation by electrophoresis.

The subject of experiment [2] is LN229 MGMT− shPMS2 cells. The experiment is described as follows: Short-term viability assay, LN229 MGMT- shPMS2. The class given is cell-based, human. To be noted: for IC50: Homo sapiens, LN-229, Table III, read-out: IC50 against LN229 cell lines, MGMT− MMR−; for MGMT− RI: Table III. How it is done: (§1) The activity of KL-50 in MGMT-LN229 cells engineered to lack expression of other key MMR proteins including MSH6, MLH1, PMS2, and MSH3 was also confirmed. Western blotting was performed in LN229 MGMT+/−cells with stable expression of shRNA targeting MSH6, MLH1, PMS2, or MSH3 to confirm depletion of the shRNA targets. In shMSH6 cells, there was reduced expression of MSH2, and in shMLH1 cells, there was loss of PMS2, due to destabilization in the setting of loss of their heterodimeric partners. GAPDH serves as loading control. […] Short-term viability assay curves for KL-50 in LN229 MGMT+/−, MMR+/shMSH6 cells. […] Short-term viability assay curves for KL-50 in LN229 MGMT+/−, MMR+/shMLH1 cells. […] Short-term viability assay curves for KL-50 in LN229 MGMT+/−, MMR+/shPMS2 cells. […] Short-term viability assay curves for KL-50 in LN229 MGMT+/−, MMR+/shMSH3 cells.
MMR Protein shRNA Knockdown. pGIPZ lentiviral shRNA vectors targeting MSH2, MSH6, MLH1, PMS2, and MSH3 were purchased from Horizon Discovery (Table IV). Lentiviral particles were produced in HEK293T cells via co-transfection with lentiviral shRNA plasmid, pCMV-VSV-G envelope plasmid (Addgene, #8454) and psPAX2 packaging plasmid (Addgene, #12260), using Lipofectamine 3000 Reagent (Invitrogen, L3000001) per manufacturer's protocol. Viral particles were harvested 48 h post-transfection and used to transduce LN229 MGMT+/−cells in the presence of 8 μg/mL polybrene. Selection of pooled cells with lentiviral expression was established with 1 μg/mL puromycin 48 h post-transduction for 3 to 4 days. Single cell cloning was performed by limiting dilution and protein knockdown was confirmed by western blotting.
Short-term Cell Viability Assay. Cells were seeded in 96-well plates at 1000 or 2000 cells/well and allowed to adhere at 23° C. for 60 min and then incubated overnight at 37° C. Cells were treated with indicated concentrations of compounds in triplicate for 4-6 days prior to fixation with 3.7% paraformaldehyde and nuclear staining with 1 μg/mL Hoechst 33342 dye. Cells were imaged on a Cytation 3 imaging reader (BioTek) and quantified using CellProfiler software. For in vitro short-term growth delay experiments, IC50 values were determined from the nonlinear regression equation, [inhibitor] vs normalized response with variable slope.

In experiment [3] the test system is MGMT−/MMR+ cells. The experiment is described as follows: IR alkaline comet assay, LN229 MGMT-/MMR+. In kind it is cell-based, human. To be noted: for IR-induced comet tail (ICL formation): 200 μM; for comet tailing in the absence of IR: TMZ 200 μM, KL-50 200 μM, MMC 0.1 or 50 μM. As to the method:
The IR alkaline comet assay, adapted for ICL detection was performed to determine if ICLs were formed in MGMT-cells treated with KL-50. In this assay, cells were sequentially exposed to genotoxins and ionizing radiation, and then analyzed by single cell alkaline gel electrophoresis. Attenuation of the IR-induced comet tail is indicative of ICL formation.
IR Alkaline Comet Assay. This assay was performed utilizing the CometAssay™ Kit (Trevigen) according to the alkaline assay protocol, with the addition of slide irradiation post-lysis. Cells were trypsinized, washed with 1×PBS, added to melted Comet LMAgarose (Trevigen), and spread on Trevigen CometSlides at a density of 1000 cells per sample in 50 μL. Lysis solution (Trevigen) with 10% DMSO was added overnight at 4° C. […] Slides were then placed in alkaline buffer (200 mM NaOH, 1 mM EDTA) for 45 min, followed by electrophoresis in 850 mL alkaline buffer for 45 min at 4° C. Slides were washed and stained with SYBR gold (Invitrogen) per Trevigen assay protocol. Slides were imaged on a Cytation 3 imaging reader (BioTek), and comets were analyzed using CometScore 2.0 software (TriTek).

The test system of experiment [4] is LN229 MGMT+ shMLH1 cells. The experiment is described as follows: Short-term viability assay, LN229 MGMT+ shMLH1. The class given is cell-based. The following applies: Homo sapiens, LN-229, Table III, read-out: IC50 against LN229 cell lines, MGMT MMR−. As to the method:
as §1
(§2) MMR Protein shRNA Knockdown. pGIPZ lentiviral shRNA vectors targeting MSH2, MSH6, MLH1, PMS2, and MSH3 were purchased from Horizon Discovery (Table IV). […]
(§3) Short-term Cell Viability Assay. […] Cells were imaged on a Cytation 3 imaging reader (BioTek) and quantified using CellProfiler software. For in vitro short-term growth delay experiments, IC50 values were determined from the nonlinear regression equation, [inhibitor] vs normalized response with variable slope.

Experiment [5] deals with LN229 MGMT+ shMSH6 cells. The experiment is described as follows: Short-term viability assay, LN229 MGMT+ shMSH6. The class given is cell-based. The following applies: Homo sapiens, LN-229, Table III, read-out: IC50 against LN229 cell lines, MGMT MMR−. How it is done:
as §1, §2, §3

In general, IC50 refers to the concentration that inhibits the measured activity by half. For `NC(=O)c1ncn2c(=O)n(CCF)nnc12` [KL-50], in experiment [1], the FANCD2 ubiquitination entry is listed as “observed specifically in MGMT-cells”. In addition, in experiment [2], the 50% inhibitory concentration (IC50) turned out to be 5.4 ± 0.3 µM and the “MGMT− RI” value was 0.4. In experiment [3], the “IR-induced comet tail (ICL formation)” value is “reduced the % DNA in the tail to levels similar to those seen for 0.1 μM MMC” and the “comet tailing in the absence of IR” value is reported as “induced tailing”. Further, the half-maximal inhibitory concentration (IC50) in experiment [4] came out at 252 ± 28 µM. Also, the half-inhibitory concentration (IC50) in experiment [5] came to 362 ± 41 µM.
As to `Cn1nnc2c(C(N)=O)ncn2c1=O` [TMZ, 4-methyl-5-oxo-2,3,4,6,8-pentazabicyclo[4.3.0]nona-2,7,9-triene-9-carboxamide, reference compound], the FANCD2 ubiquitination result in experiment [1] is recorded as “only in MGMT−/MMR+cells”. In experiment [2], the half-maximal inhibitory concentration (IC50) is 921 ± 190 µM and the “MGMT− RI” value stood at 181. Also, in experiment [3], the “IR-induced comet tail (ICL formation)” value was “did not reduce DNA migration following IR” and the “comet tailing in the absence of IR” value is “induced tailing”. Besides, the IC50 in experiment [4] was found to be 769 ± 100 µM. In addition, the IC50 in experiment [5] was 929 ± 201 µM.
